Common to all, as to test: NCI-60 cell line screen, 48 h
Assay [1] deals with 786-0 renal.
In assay [2] the test system is DU-145 prostate.
The test system of assay [3] is ACHN renal.
Assay [4] concerns SF-268 CNS.
Assay [5] concerns NCI-H522 lung.

Molecules are shown by their SMILES.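 Each compound was tested at five concentrations against cells in 96-well plates for 48 hours. At the TGI there is no net growth.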

In the case of `c1csc(-c2ccsc2-c2cccs2)c1`, the TGI in assay [1], in assay [2], in assay [3], in assay [4] and in assay [5] was more than 100 µM throughout.
Take `Nc1ncn2c(n1)nc1ccccc12`: the TGI in assay [1], in assay [2], in assay [3], in assay [4] and in assay [5] was more than 100 µM in each case.
Consider `CCCCCCCCCCCCCCC(O)C[N+](C)(CCO)CCO` (configuration not stated), for which the TGI in assay [1] came out at 4.78 µM; in assay [2] it was 23.6 µM; in assay [3] it was 21.7 µM; in assay [4], 5.16 µM; in assay [5], 5.03 µM.
For the compound `CCOC(=O)Nc1ccc2c(c1)c(CCCCCCc1nc3ccccc3c3ccc(NC(=O)OCC)cc13)nc1ccccc12`, the TGI was 42.4 µM in assay [1]; more than 100 µM in assay [2]; more than 100 µM in assay [3]; 74.9 µM in assay [4]; 60.5 µM in assay [5].
As to `COc1ccc2c3c([nH]c2c1)CCN(CCCC(=O)c1ccc(F)cc1)C3`, the TGI came to 27.1 µM in assay [1]; 33.9 µM in assay [2]; 30.8 µM in assay [3]; 34.1 µM in assay [4]; 42.8 µM in assay [5].
As for `Cc1csc2c1-n1cccc1C2=O`, the TGI in assay [1], in assay [2], in assay [3], in assay [4] and in assay [5] was more than 100 µM each time.
Regarding `Nc1nc(Cl)cc(NC2(CO)CCC2)n1`, the TGI in assay [1], in assay [2], in assay [3], in assay [4] and in assay [5] was more than 100 µM in each case.
As for `NNC(=S)NCCNC(=S)NN`, the TGI in assay [1], in assay [2], in assay [3], in assay [4] and in assay [5] was more than 100 µM each time.
`CC1(C)CCC(C)(C)C1C(=O)NC(O)C(=O)O` (configuration not stated): the TGI in assay [1], in assay [2], in assay [3] and in assay [4] was more than 100 µM each time.
`O=C(/C=C/c1cccc(Oc2ccccc2)c1)NCc1ccc(C(=O)NCCc2ccccc2)cc1`: the TGI in assay [1], in assay [2], in assay [3], in assay [4] and in assay [5] was more than 100 µM in each case.
Consider `Clc1ccc(-c2cn3c(nc4ccccc43)c(/C=C/c3ccco3)n2)cc1`, for which the TGI in assay [1], in assay [2], in assay [3] and in assay [4] was more than 100 µM throughout.
As to `CC(C)=CCc1[nH]c2ccccc2c1C1=C(O)C(=O)C(c2c(CC=C(C)C)[nH]c3ccccc23)=C(O)C1=O`, the TGI turned out to be 10.2 µM in assay [1]; 10.9 µM in assay [2]; 3.95 µM in assay [3]; 7.11 µM in assay [4]; 5.58 µM in assay [5].
The like results for `COc1c(-c2nc3nc(N4CCN(C)CC4)ccc3[nH]2)cc(OC)c2c1nc(COC(C)=O)n2C` were, in that order, more than 100 µM, more than 100 µM, more than 100 µM, more than 100 µM and more than 100 µM.
`CC(=O)Oc1c(N2CCCCC2)c(C(=O)c2ccccc2)c(O)c2ccn(N(C)C)c12`: the TGI in assay [1] was found to be 33.8 µM; in assay [2], 56.6 µM; in assay [3], 40.2 µM; in assay [4], 57.5 µM.
On to `O=C(CCC=C(S(=O)(=O)c1ccccc1)S(=O)(=O)c1ccccc1)c1ccccc1`, for which the TGI was determined as 11.8 µM in assay [1]; 25.4 µM in assay [2]; 20 µM in assay [3]; 18.8 µM in assay [4]; 9.45 µM in assay [5].
Take `O=c1ccn(C2OC(CO)C(O)C2F)c(=O)n1Cc1ccccc1` (configuration not stated): the TGI in assay [1], in assay [2], in assay [3], in assay [4] and in assay [5] was more than 100 µM in each case.
With `CC(=O)Oc1c(-c2ccccc2)sc2ccccc12`, the TGI in assay [1] is 28.9 µM; in assay [2] it was 27.9 µM; in assay [3] it was 32 µM; in assay [4] it was 71.2 µM; in assay [5], 51.3 µM.
As to `CCOC(=O)c1nc2ccc(C(F)(F)F)cc2nc1Nc1ccc(Cl)c(Cl)c1`, the TGI in assay [1], in assay [2], in assay [3], in assay [4] and in assay [5] was more than 100 µM in each case.
As to `CCCCCCCCCCCCCCCCOP(=O)(O)OCC(N)C(=O)O` (configuration not stated), the TGI in assay [1] is 41.6 µM; in assay [2], more than 100 µM; in assay [3], 32.7 µM; in assay [4], 41.6 µM; in assay [5] it was 42 µM.
In the case of `COc1cc2c(c(O)c1OC)CC1CCC(=O)N1C2c1cccc2ccccc12` (configuration not stated), the TGI in assay [1] was 94.5 µM; in assay [2], 37.3 µM; in assay [3], more than 100 µM; in assay [4] it was 78.7 µM; in assay [5], 41 µM.
`C=C1CC(Cn2ccc(=O)[nH]c2=O)(c2ccc(Cl)cc2)OC1=O` (configuration not stated): the TGI in assay [1] turned out to be 4.83 µM; in assay [2], 23.2 µM; in assay [3], 10.4 µM; in assay [4], 43.5 µM; in assay [5], 2.26 µM.
As for `COC(=O)c1ccc(C)cc1CC1Cc2ccc(C)cc2C1=O` (configuration not stated), the TGI in assay [1] was 48.5 µM; in assay [2], more than 100 µM; in assay [3] it was 80.8 µM; in assay [4] it was 61.7 µM; in assay [5], 5.48 µM.
For `O=c1[nH]cc(Cl)c(=O)[nH]1`, the TGI in assay [1], in assay [2], in assay [3], in assay [4] and in assay [5] was more than 100 µM each time.
`C=C1C(O)C[C@H](OC(C)=O)[C@]2(C)C1C(OC(C)=O)[C@]1(C(C)(C)O)CC(O)C(C)=C1[C@@H](OC(=O)c1ccccc1)C2OC(C)=O` (some centres not stated): the TGI in assay [1], in assay [2], in assay [3], in assay [4] and in assay [5] was more than 10 µM in each case.
Turning to `OCCN(/N=C\c1ccc2ccccc2c1)C1=NCCN1`, the TGI is 64.4 µM in assay [1], more than 100 µM in assay [2], more than 100 µM in assay [3] and more than 100 µM in assay [4].
As to `Cc1n[nH]c(=O)n1/N=C\c1ccccc1`, the TGI in assay [1], in assay [2], in assay [3], in assay [4] and in assay [5] was more than 100 µM in each case.
With `Cc1oc2c(c1C)S(=O)(=O)C(C#N)=C(N(C)C)N2`, the TGI in assay [1], in assay [2], in assay [3], in assay [4] and in assay [5] was more than 100 µM in each case.
`COc1ccc(C2C(C#N)=C(S)N(C3OC(COC(C)=O)C(OC(C)=O)C(OC(C)=O)C3OC(C)=O)C(c3ccccc3)=C2C(C)=O)cc1` (configuration not stated): the TGI in assay [1], in assay [2], in assay [3], in assay [4] and in assay [5] was more than 100 µM in each case.
Turning to `Cn1c(CO)ccc1-c1ccc(-c2ccc[se]2)[se]1`, the TGI was more than 71.2 µM in assay [1]; 58 µM in assay [2]; more than 100 µM in assay [3]; more than 100 µM in assay [4]; more than 100 µM in assay [5].
As for `CC(=O)Nc1c(S(=O)(=O)c2ccccc2)c(C)c(C)n1Cc1ccccc1`, the TGI in assay [1], in assay [2], in assay [3], in assay [4] and in assay [5] was more than 100 µM each time.
As for `COc1cc2c3c(n(C)c(=O)c2cc1OC)-c1cc2c(cc1/C3=C\CCCI)OCO2`, the TGI in assay [1] is more than 100 µM; in assay [2], more than 100 µM; in assay [3], more than 85.3 µM; in assay [4], more than 100 µM; in assay [5], more than 100 µM.
For the compound `COC(=O)c1c(O)ccc2[nH]c3c(O)c4ccccc4cc3c12`, the TGI was 95.6 µM in assay [1]; 71 µM in assay [2]; 96.3 µM in assay [3]; 54.7 µM in assay [4]; 53.6 µM in assay [5].
As to `O=C(O)c1cnc(-n2[nH]c3c(c2=O)CCCC3)[nH]c1=O`, the TGI in assay [1], in assay [2], in assay [3], in assay [4] and in assay [5] was more than 100 µM in each case.
Turning to `Cc1cccc(N2C(=O)C3c4[nH]c5ccccc5c4C4CCC(C(C)(C)C)CC4C3C2=O)c1` (configuration not stated), the TGI in assay [1] is 12.2 µM; in assay [2], 33.4 µM; in assay [3], 17.7 µM; in assay [4] it was 13.7 µM; in assay [5], 24.3 µM.
For `CCCCCCCCCCCC[C@@H](O)[C@H]1CCC([C@H](O)CCCCC(=O)CCCCCCCC2=C[C@H](C)OC2=O)O1` (some centres not stated), the TGI in assay [1], in assay [2], in assay [3], in assay [4] and in assay [5] was more than 50 µM each time.
Turning to `CC(=O)Nc1ccc2[nH]c(C(=O)N3CC(CCl)c4c3cc([N+](=O)[O-])c3ccccc43)cc2c1` (configuration not stated), the TGI in assay [1] was more than 100 µM; in assay [2], more than 100 µM; in assay [3], more than 100 µM; in assay [4], more than 57.1 µM; in assay [5], 6.61 µM.
Regarding `CCOC(=O)C(Cc1ccc(OC(=O)OC(C)(C)C)cc1)NC(=O)OC(C)(C)C` (configuration not stated), the TGI was more than 100 µM in assay [1]; 96 µM in assay [2]; more than 100 µM in assay [3]; more than 100 µM in assay [4]; more than 100 µM in assay [5].
As to `Cc1nc(C)c(N2CCNCC2)c(=O)[nH]1`, the TGI in assay [1], in assay [2], in assay [3], in assay [4] and in assay [5] was more than 100 µM in each case.
Regarding `O=c1oc2ccccc2cc1-c1cn2c(n1)sc1ccccc12`, the TGI in assay [1], in assay [2], in assay [3], in assay [4] and in assay [5] was more than 100 µM in each case.
`CC(C)=CCC/C(C)=C/COc1c2ccoc2cc2oc(=O)ccc12`: the TGI in assay [1] is more than 100 µM; in assay [3], 83.8 µM; in assay [4], more than 100 µM; in assay [5], 74.8 µM.
In the case of `CC(=O)Oc1c2c(c3n(c1=O)CCCC3)C(=O)N(c1ccccc1)C2=O`, the TGI in assay [1], in assay [2], in assay [3], in assay [4] and in assay [5] was more than 100 µM in each case.
Take `Clc1cccc(NN=Nc2ccc(-c3nc4ccccc4s3)cc2)c1`: the TGI in assay [1] was 51.4 µM; in assay [2], more than 100 µM; in assay [3] it was more than 100 µM; in assay [5], 66.2 µM.
As for `CC(=O)NC(C)(C)C1CCC(C)=C(c2ccccc2)C1` (configuration not stated), the TGI in assay [1], in assay [2], in assay [4] and in assay [5] was more than 100 µM in each case.
Consider `COc1cc(OC)c2c3c(OC)cc(OC)c4c(=O)c(O)c(C[C@@H](C)O)c(c5c(C[C@@H](C)O)c(O)c(=O)c1c25)c43`, for which the TGI in assay [1] was 44.8 µM; in assay [2], more than 100 µM; in assay [3], more than 100 µM; in assay [4], 70.4 µM.
With `C/C=C1\CN(C(=O)OC(C)(C)C)C1C(=O)OC(C)(C)C` (configuration not stated), the TGI in assay [1], in assay [3] and in assay [4] was more than 100 µM in each case.
As for `CC1CC/C(=C\c2ccc(F)cc2)C(=O)/C1=C/c1ccc(F)cc1` (configuration not stated), the TGI in assay [1] is 8.42 µM; in assay [2] it was 17.1 µM; in assay [3] it was 13.6 µM; in assay [4], 14.6 µM.
The like results for `Cc1c(N=Nc2ccccc2)c(C)n(C2OC(CO)C(O)C(O)C2O)c(=S)c1C#N` (configuration not stated) were, in that order, more than 100 µM, more than 100 µM, more than 100 µM and more than 100 µM.
Consider `CC(C)(C)OC(=O)CN1CCNCCN(CC(=O)OC(C)(C)C)CCNCC1`, for which the TGI in assay [1], in assay [2], in assay [3] and in assay [5] was more than 100 µM each time.

The record behind these values is PubChem BioAssay (NCI).
